Data reported in ChEMBL document CHEMBL1201862, “PubChem BioAssay data set” (2004).
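Interpolation was linear, between the two tested concentrations surrounding the appropriate level; five concentrations were tested over 48 hours in 96-well plates. The concentration for 50% growth inhibition is given as GI50.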 The source made the active and inactive calls. Rule as the data show it: active = GI50 up to about 1.1 µM and inactive = higher.

What was measured:
Assay in all cases: inhibition of tumour cell growth, NCI panel, 48 h
[1] = test system: SR
[2] = test system: TK-10
[3] = test system: KM12
[4] = test system: MDA-MB-231
[5] = test system: DU-145
[6] = test system: Hs-578T
[7] = test system: RXF 393
[8] = test system: SK-MEL-28
[9] = test system: HL-60
[10] = test system: LOX IMVI
[11] = test system: A549
[12] = test system: NCI-H460
[13] = test system: EKVX
[14] = test system: U-251
[15] = test system: SK-MEL-5
[16] = test system: T47D
[17] = test system: MCF7
[18] = test system: SNB-19
[19] = test system: MOLT-4
[20] = test system: BT-549

| SMILES | GI50 [1] | GI50 [2] | GI50 [3] | GI50 [4] | GI50 [5] | GI50 [6] | GI50 [7] | GI50 [8] | GI50 [9] | GI50 [10] | GI50 [11] | GI50 [12] | GI50 [13] | GI50 [14] | GI50 [15] | GI50 [16] | GI50 [17] | GI50 [18] | GI50 [19] | GI50 [20] |
| --- | --- | --- | --- | --- | --- | --- | --- | --- | --- | --- | --- | --- | --- | --- | --- | --- | --- | --- | --- | --- |
| COC(=O)c1cccc(C)c1C1CN=NC12Cc1c(ccc(C)c1C)C2=O (stereo unspecified) | 21.3 µM (inactive) | > 100 µM (inactive) | 23.3 µM (inactive) | 26.7 µM (inactive) | 64.1 µM (inactive) | 27.4 µM (inactive) | 19.2 µM (inactive) | 50 µM (inactive) | 12.6 µM (inactive) | > 100 µM (inactive) | 40.6 µM (inactive) | 47.6 µM (inactive) | 7.14 µM (inactive) | 56 µM (inactive) | 0.102 µM (active) | 5.4 µM (inactive) | 32.5 µM (inactive) | 55 µM (inactive) | 23.6 µM (inactive) |  |
| CN(C)CCCNC(=O)CNC(=O)c1cc(NC(=O)c2cc(NC(=O)c3cc(NC(=O)CCNC(=O)c4cc(NC(=O)c5cc(NC(=O)c6nccn6C)cn5C)cn4C)cn3C)cn2C)cn1C |  | > 100 µM (inactive) | 64.6 µM (inactive) | > 100 µM (inactive) | > 100 µM (inactive) | > 100 µM (inactive) |  | > 100 µM (inactive) | 43 µM (inactive) | > 100 µM (inactive) | > 100 µM (inactive) | > 100 µM (inactive) | > 100 µM (inactive) | > 100 µM (inactive) | > 100 µM (inactive) | > 100 µM (inactive) | > 100 µM (inactive) | > 100 µM (inactive) | 20.8 µM (inactive) |  |
| CC(C)(C)OC(=O)N1CCc2[nH][nH]c(=O)c2C1 | > 100 µM (inactive) | > 100 µM (inactive) | > 100 µM (inactive) | > 100 µM (inactive) | > 100 µM (inactive) | > 100 µM (inactive) | > 100 µM (inactive) | > 100 µM (inactive) | > 100 µM (inactive) |  | > 100 µM (inactive) | > 100 µM (inactive) | > 100 µM (inactive) | > 100 µM (inactive) |  |  | > 100 µM (inactive) | > 100 µM (inactive) | > 100 µM (inactive) | > 100 µM (inactive) |
| Cc1ccc(S(=O)(=O)N2C[C@](O)(c3ccccc3)[C@H]2C)cc1 |  | > 100 µM (inactive) | > 100 µM (inactive) | > 100 µM (inactive) | > 100 µM (inactive) | > 100 µM (inactive) | > 100 µM (inactive) | > 100 µM (inactive) | 72.8 µM (inactive) | > 100 µM (inactive) | > 100 µM (inactive) | > 100 µM (inactive) | > 100 µM (inactive) | > 100 µM (inactive) | 51.1 µM (inactive) | 47.9 µM (inactive) | > 100 µM (inactive) | > 100 µM (inactive) | 44.2 µM (inactive) |  |
| Cc1nnc([C@@]2(C)CC[C@H]3[C@@H](CCC4=CC(=O)CC[C@@]43C)[C@@H]2CC#N)o1 | > 100 µM (inactive) | > 100 µM (inactive) | > 100 µM (inactive) | > 100 µM (inactive) |  | > 100 µM (inactive) | > 100 µM (inactive) |  | > 100 µM (inactive) | > 100 µM (inactive) | > 100 µM (inactive) |  | > 100 µM (inactive) | > 100 µM (inactive) | > 100 µM (inactive) |  | > 100 µM (inactive) | > 100 µM (inactive) | > 100 µM (inactive) | > 100 µM (inactive) |
| N=C/N=C/C(=S)O[C@@H]1C(=O)N2CCC[C@@]23CCCC[C@@H]13 | > 12.5 µM (inactive) | > 12.5 µM (inactive) | > 12.5 µM (inactive) | > 12.5 µM (inactive) | > 12.5 µM (inactive) | > 12.5 µM (inactive) | > 12.5 µM (inactive) | > 12.5 µM (inactive) | > 12.5 µM (inactive) | > 12.5 µM (inactive) | > 12.5 µM (inactive) | > 12.5 µM (inactive) | > 12.5 µM (inactive) | > 12.5 µM (inactive) | > 12.5 µM (inactive) | > 12.5 µM (inactive) | > 12.5 µM (inactive) | > 12.5 µM (inactive) |  |  |
| C/N=C(\N=c1/ss/c(=N\C)n1C)N(C)C.[O-][Cl+3]([O-])([O-])O | 70.8 µM (inactive) | > 100 µM (inactive) | > 100 µM (inactive) |  |  |  | > 100 µM (inactive) | > 100 µM (inactive) | 43.5 µM (inactive) | 45.9 µM (inactive) | > 100 µM (inactive) | > 100 µM (inactive) | > 100 µM (inactive) | > 100 µM (inactive) | > 100 µM (inactive) |  |  | > 100 µM (inactive) | 59.7 µM (inactive) |  |
| CC1(C)N=C(N)N=C(N)N1c1cccc(OCCOc2ccc([N+](=O)[O-])cc2)c1 | 0.238 µM (active) | > 100 µM (inactive) | 11.5 µM (inactive) | > 100 µM (inactive) | 20.1 µM (inactive) | > 100 µM (inactive) | 21.8 µM (inactive) | 53.3 µM (inactive) | 66.8 µM (inactive) | 8.97 µM (inactive) | 4.48 µM (inactive) | 7.53 µM (inactive) | > 100 µM (inactive) | 7.33 µM (inactive) | 69.5 µM (inactive) |  | 16 µM (inactive) | 37.8 µM (inactive) | > 100 µM (inactive) | 12.9 µM (inactive) |
| CN1C(=O)C(=CN)C(=O)N(C)C1=O | > 100 µM (inactive) | > 100 µM (inactive) | > 100 µM (inactive) |  |  |  | > 100 µM (inactive) | > 100 µM (inactive) | > 100 µM (inactive) | > 100 µM (inactive) | > 100 µM (inactive) | > 100 µM (inactive) | > 100 µM (inactive) | > 100 µM (inactive) | > 100 µM (inactive) |  |  | > 100 µM (inactive) | > 100 µM (inactive) |  |
| CCOC(=O)C1(C/C=C(/C)Cl)CCCC1=O (stereo unspecified) | 20.7 µM (inactive) | > 100 µM (inactive) | > 100 µM (inactive) |  |  |  | > 100 µM (inactive) | > 100 µM (inactive) | 86.5 µM (inactive) | > 100 µM (inactive) | > 100 µM (inactive) | > 100 µM (inactive) | > 100 µM (inactive) | > 100 µM (inactive) | > 100 µM (inactive) |  |  | > 100 µM (inactive) | > 100 µM (inactive) |  |
| NC1=NN(c2ccccc2)C(=O)C1/C(=N\NC(=O)c1cc2ccccc2cc1O)C(=O)Nc1nc([N+](=O)[O-])cs1 (stereo unspecified) | 6.78 µM (inactive) | 38.5 µM (inactive) | 30.3 µM (inactive) |  |  |  | 2.73 µM (inactive) | 42.7 µM (inactive) | 8.81 µM (inactive) | 18.4 µM (inactive) | 32.7 µM (inactive) | 18.1 µM (inactive) | 47.3 µM (inactive) | 27.7 µM (inactive) | 20.3 µM (inactive) |  |  | > 60.1 µM (inactive) | 3.6 µM (inactive) |  |
| O=c1c(-c2c(-c3ccccc3)oc3ccc(Cl)cc3c2=O)c(-c2ccccc2)oc2ccc(Cl)cc12 | > 100 µM (inactive) | > 100 µM (inactive) | > 100 µM (inactive) | > 40.3 µM (inactive) | > 100 µM (inactive) | > 49.8 µM (inactive) | > 100 µM (inactive) | > 100 µM (inactive) | 0.0302 µM (active) | > 82.4 µM (inactive) |  | > 94.8 µM (inactive) | > 43.9 µM (inactive) | > 100 µM (inactive) | > 100 µM (inactive) | > 100 µM (inactive) | > 100 µM (inactive) | > 100 µM (inactive) | > 100 µM (inactive) |  |
| C[n+]1c(-c2ccc(/C=N/NC(=O)C(=O)N/N=C/c3ccc(-c4cn5ccsc5[n+]4C)cc3)cc2)cn2ccsc21 | > 100 µM (inactive) | > 100 µM (inactive) | > 100 µM (inactive) | > 100 µM (inactive) |  | > 100 µM (inactive) |  | 87.3 µM (inactive) | > 100 µM (inactive) |  | > 100 µM (inactive) | > 100 µM (inactive) | > 100 µM (inactive) | > 100 µM (inactive) | > 100 µM (inactive) | > 100 µM (inactive) | > 100 µM (inactive) | > 100 µM (inactive) | > 100 µM (inactive) |  |
| Cc1cn(C2CC(COCc3ccccc3)N(CCO[Si](C)(C)C(C)(C)C)O2)c(=O)[nH]c1=O (stereo unspecified) | 35.1 µM (inactive) | 14.3 µM (inactive) | 17.3 µM (inactive) | 18.7 µM (inactive) | 15.8 µM (inactive) |  | 15.5 µM (inactive) | 16.8 µM (inactive) |  |  | 15.1 µM (inactive) | 18.5 µM (inactive) |  | 19.2 µM (inactive) | 2.88 µM (inactive) | 13.5 µM (inactive) | 18.5 µM (inactive) | 13.6 µM (inactive) | 5.93 µM (inactive) |  |
| CC(=O)OC1CC2C(C)(C)C(=O)C=C[C@]2(C)C2CCC3(C)C(c4ccoc4)[C@@H](O)[C@H]4O[C@]43[C@]12C (stereo partly specified) | 16.1 µM (inactive) | 34.2 µM (inactive) | 19.2 µM (inactive) |  |  |  | 19.1 µM (inactive) | 23.7 µM (inactive) | 24.9 µM (inactive) | 16.9 µM (inactive) | 36 µM (inactive) | 19.3 µM (inactive) | 30.2 µM (inactive) | 14.6 µM (inactive) | 17.5 µM (inactive) |  |  | 24 µM (inactive) | 21.7 µM (inactive) |  |
| CC(C)=CCC/C(C)=C\CC/C(C)=C/CO | 21.4 µM (inactive) | 25.7 µM (inactive) | 38.2 µM (inactive) | 42 µM (inactive) | 27.1 µM (inactive) | 28.8 µM (inactive) |  | 44.9 µM (inactive) | 17.1 µM (inactive) | > 10 µM (inactive) | > 100 µM (inactive) | > 10 µM (inactive) | 30.6 µM (inactive) | 17.6 µM (inactive) | 26.4 µM (inactive) | 31 µM (inactive) | 19.3 µM (inactive) | 18.5 µM (inactive) | 20.5 µM (inactive) |  |
